# System: apyrase
# Test: Screen for apyrase inhibitors (Method 1, in vitro phosphate-release absorbance assay)
# Assay type: biochemical
# Settings: inhibitor conc at 1 mM stock, 1 hr room temperature, absorbance 630 nm; rounded average of two assay results
# How it was run: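 Phosphate-release colorimetric assay (Windsor method) in 60 mM Hepes, 3 mM MgCl2, 3 mM CaCl2, 3 mM ATP, pH 6.5, with compound or DMSO control added. Released phosphate developed with ammonium molybdate and ascorbic acid/TCA, then stopped with citrate/acetic acid.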
row,SMILES,% Inhibition of Apyrase
1,"COc1cccc(S(=O)(=O)Nc2ccc(C(=O)Nc3ccc4c(c3)OCCO4)cc2)c1 [I-903, N-(2,3-dihydrobenzo[b][1,4]dioxin-6-yl)-4-((3-methoxyphenyl)sulfonamido)benzamide]",62%
2,"O=C(Nc1cccc(F)c1)c1ccc(NS(=O)(=O)c2ccccc2)cc1 [I-904, N-(3-fluorophenyl)-4-(phenylsulfonamido)benzamide]",62%
3,"Cc1cccc(NC(=O)c2ccc(NS(=O)(=O)c3ccc(F)c(Cl)c3)cc2)c1 [I-905, 4-((3-chloro-4-fluorophenyl)sulfonamido)-N-(m-tolyl)benzamide]",61%
4,"O=C(Nc1cccc(Cl)c1)c1ccc(NS(=O)(=O)c2ccc(F)c(F)c2)cc1 [I-906, N-(3-chlorophenyl)-4-((3,4-difluorophenyl)sulfonamido)benzamide]",61%
5,"Cc1ccc(C)c(S(=O)(=O)Nc2ccc(C(=O)Nc3ccccc3F)cc2)c1 [I-907, 4-((2,5-dimethylphenyl)sulfonamido)-N-(2-fluorophenyl)benzamide]",61%
6,"O=C(Nc1ccc2c(c1)OC1(CCCC1)O2)c1ccc(NS(=O)(=O)c2ccccc2)cc1 [I-908, 4-(phenylsulfonamido)-N-(spiro[benzo[d][1,3]dioxole-2,1′-cyclopentan]-5-yl)benzamide]",61%
7,"Cc1cc(S(=O)(=O)Nc2ccc(C(=O)N3c4ccccc4CC3C)cc2)ccc1F (stereo not drawn) [I-909, 4-fluoro-3-methyl-N-(4-(2-methylindoline-1-carbonyl)phenyl)benzenesulfonamide]",60%
8,"O=C(Nc1ccc2c(c1)CCC2)c1ccc(NS(=O)(=O)c2ccc3c(c2)OCCO3)cc1 [I-910, N-(2,3-dihydro-1H-inden-5-yl)-4-((2,3-dihydrobenzo[b][1,4]dioxine)-6-sulfonamido)benzamide]",60%
9,"CC1Cc2ccccc2N1C(=O)c1ccc(NS(=O)(=O)c2ccccc2)cc1 (stereo not drawn) [I-911, N-(4-(2-methylindoline-1-carbonyl)phenyl)benzenesulfonamide]",59%
10,"O=C(c1ccc(NS(=O)(=O)c2ccc3c(c2)OCCO3)cc1)N1CCCc2ccccc21 [I-912, N-(4-(1,2,3,4-tetrahydroquinoline-1-carbonyl)phenyl)-2,3-dihydrobenzo[b][1,4]dioxine-6-sulfonamide]",59%
11,"Cc1cccc(NC(=O)c2ccc(NS(=O)(=O)c3ccc(Br)cc3)cc2)c1C [I-913, 4-((4-bromophenyl)sulfonamido)-N-(2,3-dimethylphenyl)benzamide]",59%
12,"CCOc1ccc(NC(=O)c2ccc(NS(=O)(=O)c3ccccc3)cc2)cc1 [I-914, N-(4-ethoxyphenyl)-4-(phenylsulfonamido)benzamide]",59%
13,"COc1ccccc1NC(=O)c1ccc(NS(=O)(=O)c2ccc(Cl)c(C(F)(F)F)c2)cc1 [I-915, 4-((4-chloro-3-(trifluoromethyl)phenyl)sulfonamido)-N-(2-methoxyphenyl)benzamide]",59%
14,"COc1cccc(S(=O)(=O)Nc2ccc(C(=O)Nc3cccc(C(F)(F)F)c3)cc2)c1 [I-916, 4-((3-methoxyphenyl)sulfonamido)-N-(3-(trifluoromethyl)phenyl)benzamide]",58%
15,"Cc1ccc(NC(=O)c2ccc(NS(=O)(=O)c3ccccc3)cc2)cc1C [I-917, N-(3,4-dimethylphenyl)-4-(phenylsulfonamido)benzamide]",58%
16,"Cc1ccc(NC(=O)c2ccc(NS(=O)(=O)c3ccc(F)cc3)cc2)cc1C [I-918, N-(3,4-dimethylphenyl)-4-((4-fluorophenyl)sulfonamido)benzamide]",58%
17,"COc1ccccc1NC(=O)c1ccc(NS(=O)(=O)c2cccc(C(F)(F)F)c2)cc1 [I-919, N-(2-methoxyphenyl)-4-((3-(trifluoromethyl)phenyl)sulfonamido) benzamide]",58%
18,"Cc1cc(S(=O)(=O)Nc2ccc(C(=O)Nc3ccc4c(c3)OCO4)cc2)ccc1F [I-920, N-(benzo[d][1,3]dioxol-5-yl)-4-((4-fluoro-3-methylphenyl)sulfonamido)benzamide]",57%
19,"O=C(Nc1ccc2c(c1)OCO2)c1ccc(NS(=O)(=O)c2ccc3c(c2)OCCO3)cc1 [I-921, N-(benzo[d][1,3]dioxol-5-yl)-4-((2,3-dihydrobenzo[b][1,4]dioxine)-6-sulfonamido)benzamide]",57%
20,"Cc1ccc(C)c(S(=O)(=O)Nc2ccc(C(=O)Nc3cccc(C(F)(F)F)c3)cc2)c1 [I-922, 4-((2,5-dimethylphenyl)sulfonamido)-N-(3-(trifluoromethyl)phenyl)benzamide]",57%
21,"O=C(c1ccc(NS(=O)(=O)c2ccc3c(c2)OCCCO3)cc1)N1CCc2ccccc21 [I-923, N-(4-(indoline-1-carbonyl)phenyl)-3,4-dihydro-2H-benzo[b][1,4]dioxepine-7-sulfonamide]",57%

row,SMILES,% Inhibition of Apyrase
1,"Cc1ccc(NC(=O)c2ccc(NS(=O)(=O)c3ccc(F)c(F)c3)cc2)cc1F [I-924, 4-((3,4-difluorophenyl)sulfonamido)-N-(3-fluoro-4-methylphenyl)benzamide]",57%
2,"Cc1ccc(S(=O)(=O)N(C)c2ccc(C(=O)Nc3cc([N+](=O)[O-])ccc3C)cc2)cc1 [I-925, 4-((N,4-dimethylphenyl)sulfonamido)-N-(2-methyl-5-nitrophenyl)benzamide]",56%
3,"O=C(Nc1ccc(Cl)c(Cl)c1)c1ccc(NS(=O)(=O)c2ccc(F)c(F)c2)cc1 [I-926, N-(3,4-dichlorophenyl)-4-((3,4-difluorophenyl)sulfonamido)benzamide]",56%
4,"Cc1ccc(S(=O)(=O)Nc2ccc(C(=O)Nc3ccc(F)cc3)cc2)cc1C [I-927, 4-((3,4-dimethylphenyl)sulfonamido)-N-(4-fluorophenyl)benzamide]",56%
5,"N#Cc1cccc(NC(=O)c2ccc(NS(=O)(=O)c3ccc(Br)cc3)cc2)c1 [I-928, 4-((4-bromophenyl)sulfonamido)-N-(3-cyanophenyl)benzamide]",56%
6,"Cc1ccc(C)c(S(=O)(=O)Nc2ccc(C(=O)Nc3ccc4c(c3)OCO4)cc2)c1 [I-929, N-(benzo[d][1,3]dioxol-5-yl)-4-((2,5-dimethylphenyl)sulfonamido)benzamide]",55%
7,"O=C(c1ccc(NS(=O)(=O)c2ccc(Cl)c([N+](=O)[O-])c2)cc1)N1CCCc2ccccc21 [I-930, 4-chloro-3-nitro-N-(4-(1,2,3,4-tetrahydroquinoline-1-carbonyl)phenyl)benzenesulfonamide]",55%
8,"Cc1cc(C)cc(NC(=O)c2ccc(NS(=O)(=O)c3ccc(F)c(Cl)c3)cc2)c1 [I-931, 4-((3-chloro-4-fluorophenyl)sulfonamido)-N-(3,5-dimethylphenyl)benzamide]",55%
9,"N#Cc1cccc(NC(=O)c2ccc(NS(=O)(=O)c3ccc(F)c(F)c3)cc2)c1 [I-932, N-(3-cyanophenyl)-4-((3,4-difluorophenyl)sulfonamido)benzamide]",55%
10,"Cc1cc(Br)ccc1NC(=O)c1ccc(NS(=O)(=O)c2ccc(F)cc2)cc1 [I-933, N-(4-bromo-2-methylphenyl)-4-((4-fluorophenyl)sulfonamido)benzamide]",53%
11,"COc1ccccc1NC(=O)c1ccc(NS(=O)(=O)c2ccc(C(F)(F)F)cc2)cc1 [I-934, N-(2-methoxyphenyl)-4-((4-(trifluoromethyl)phenyl)sulfonamido) benzamide]",53%
12,"O=C(Nc1ccc2c(c1)OCO2)c1ccc(NS(=O)(=O)c2ccc(Br)cc2)cc1 [I-935, N-(benzo[d][1,3]dioxol-5-yl)-4-((4-bromophenyl)sulfonamido)benzamide]",52%
13,"Cc1cccc(NC(=O)c2ccc(NS(=O)(=O)c3ccc(Br)cc3)cc2)c1 [I-936, 4-((4-bromophenyl)sulfonamido)-N-(m-tolyl)benzamide]",52%
14,"Cc1cccc(NC(=O)c2ccc(NS(=O)(=O)c3ccc(F)cc3)cc2)c1C [I-937, N-(2,3-dimethylphenyl)-4-((4-fluorophenyl)sulfonamido)benzamide]",52%
15,"Cc1ccc(S(=O)(=O)N(C)c2ccc(C(=O)Nc3ccc4c(c3)OCCO4)cc2)cc1 [I-938, N-(2,3-dihydrobenzo[b][1,4]dioxin-6-yl)-4-((N,4-dimethylphenyl)sulfonamido)benzamide]",51%
16,"O=C(Nc1ccc2c(c1)OCO2)c1ccc(NS(=O)(=O)c2ccc(F)cc2)cc1 [I-939, N-(benzo[d][1,3]dioxol-5-yl)-4-((4-fluorophenyl)sulfonamido)benzamide]",50%
17,"O=C(Nc1cccc(Br)c1)c1ccc(NS(=O)(=O)c2cccc([N+](=O)[O-])c2)cc1 [I-940, N-(3-bromophenyl)-4-((3-nitrophenyl)sulfonamido)benzamide]",50%
18,"COc1ccc(NC(=O)c2ccc(NS(=O)(=O)c3ccc4c(c3)OCCO4)cc2)cc1 [I-941, 4-((2,3-dihydrobenzo[b][1,4]dioxine)-6-sulfonamido)-N-(4-methoxyphenyl)benzamide]",50%
19,"COc1ccccc1NC(=O)c1ccc(NS(=O)(=O)c2ccc(C#N)cc2)cc1 [I-942, 4-((4-cyanophenyl)sulfonamido)-N-(2-methoxyphenyl)benzamide]",49%
20,"COc1ccccc1NC(=O)c1ccc(NS(=O)(=O)c2cccc(Cl)c2Cl)cc1 [I-943, 4-((2,3-dichlorophenyl)sulfonamido)-N-(2-methoxyphenyl)benzamide]",48%
21,"COc1ccccc1NC(=O)c1ccc(NS(=O)(=O)c2cccc(C#N)c2)cc1 [I-944, 4-((3-cyanophenyl)sulfonamido)-N-(2-methoxyphenyl)benzamide]",47%
